Source: patent publication US20050271630A1, “Method for treating cancer” (MEDINET Co., Ltd., priority 2004, published 2005)
Several values for one entry are separate records, joined by “and”; a condition that tells them apart may be missing. Equal values may be shown once. Entries after “also recorded” stand apart in the source; their conditions may differ. Where a name gives a salt, the structure may show the parent alone. Read-outs that look alike come from different tables or passages of the source.

Columns and labels:
[1] = test system: non-small cell lung carcinoma
[2] = test system: lung carcinoma (adenocarcinoma); experiment: Single case: CD3-LAK plus IRESSA (gefitinib), person; conditions: for Response at examination: gefitinib 250 mg/day + CD3-LAK
[3] = test system: non-small cell lung carcinoma; experiment: Activated autologous lymphocyte therapy combined with gefitinib or conventional chemotherapy, 15 cases at Seta Clinic; format: in vivo, human
Procedure: Next, studies were conducted for comparing a combination therapy with a conventional chemotherapy other than gefitinib and the method of the present invention.
The response ratio was 46.7%. […] The effective ratio including this was 53.3%. The highest number of administrations was 35, and 10.4 times of treatments on average were conducted.

[4] = gefitinib alone, 104 cases, Phase 2 study; cited from earlier work
[5] = test system: GIST (gastrointestinal stromal tumors); conditions: for Side effects: imatinib mesylate 200 mg/day
[6] = of 18 cases, gefitinib + CD3-LAK
[7] = of 18 cases, gefitinib + activated autologous lymphocyte therapy
[8] = 7 chemotherapy / 8 gefitinib cases
[9] = 7 conventional chemotherapy cases / 8 gefitinib cases, with activated autologous lymphocyte therapy

## COc1cc2ncnc(Nc3ccc(F)c(Cl)c3)c2cc1OCCCN1CCOCC1 [gefitinib]
[1]; 18 cases
  Evaluation: No effect (percent): (38.9%)
[1]; 18 cases, gefitinib + CD3-LAK
  New side effect caused by the combined use of the activated autologous lymphocytes: no new side effect
  Side effects: diarrhea, percent: 33%
  Side effects: nausea, percent: 17%
  Side effects: skin symptoms (eruption and dry skin), percent: 89%
[1]; individual cases 1-18, at end of trace period, gefitinib 250 mg/day + CD3-LAK
  Outcome at the end: Alive (17×) and Dead
[1]; of 18 cases, complete + partial response
  Evaluation: Effective (number of cases): Effective 11 cases
[1]; [6]
  Side effects: diarrhea, cases: 6 cases
  Side effects: nausea, cases: 3 cases
  Side effects: skin symptoms (eruption and dry skin), cases: 16 cases
[1]; [7]
  The number of cases, No change: 6 cases
  The number of cases, Partial response: 11 cases
  The number of cases, Progressive disease: 1 cases
[1]; of 18 cases, no change + progressive disease
  Evaluation: No effect (number of cases): No effect 7 cases
[2]; CT at examination on May 9 versus start of combination therapy (FIGS. 2 and 3)
  Lesioned site in CT image: almost disappeared
[2]; examination on Feb. 13, 2003, therapy started Oct. 2002
  Response at examination: considerable response
[2]; examination on May 9 (2003)
  Response at examination: remarkable response
[3]; [8]
  Evaluation: Effective (percent): (62.5%)
  Evaluation: No effect (percent): (37.5%)
[3]; [9]
  The number of cases, Complete response: 0 cases
  The number of cases, Long no change: 0 cases
  The number of cases, No change: 3 cases
  The number of cases, Partial response: 5 cases
  The number of cases, Progressive disease: 0 cases
[3]; complete + partial response + long no change, 7 chemotherapy / 8 gefitinib cases
  Evaluation: Effective (number of cases): Effective 5 cases
[3]; gefitinib group (cases 8-15)
  Cases still alive: 7 cases
  Longest period of survival confirmed: 743 days
[3]; individual cases 1-15, at end of trace period
  Outcome at the end: Alive
[3]; no change + progressive disease, 7 chemotherapy / 8 gefitinib cases
  Evaluation: No effect (number of cases): 3 cases
[4]
  Response ratio: 18%

## Cc1ccc(NC(=O)c2ccc(CN3CCN(C)CC3)cc2)cc1Nc1nccc(-c2cccnc2)n1 [imatinib mesylate]
[5]; Patient 2
  Duration of partial response since the start of the combination therapy: 21 months
  Increase in liver enzyme levels, GOT: 58 U/ml
  Increase in liver enzyme levels, GPT: 43 U/ml
  Side effects: itching with eczema of the face and limbs; also recorded: stomach discomfort; also recorded: diarrhea
[5]; Patient 2, three months after starting the therapy, 151 U/ml at start
  CA12-5 level: 26 U/ml
[5]; Patient 3
  Time without tumor progression since start of combination therapy: 25 months
[5]; Patient 3, combination therapy
  Side effects: diarrhea
[5]; Patient 3, imatinib mesylate 100 to 300 mg per day oral
  Side effects at the time of administration: side effects on their digestive organs
[5]; Patient 3, one month after the MRI (one year and two months)
  Change of foci: decreased slightly
[5]; Patient 3, one year and five months after starting the therapy
  Interpretation of PET: no extraordinary accumulation
[5]; Patient 3, one year and one month after starting the combination therapy, two foci
  Size of foci in MRI: 1.1 cm and 0.6 cm
[5]; Patient 3, since the combination therapy was started
  Tumor progression: had not progressed
